Assay results taken from patent publication US8377949B2, “Quinazolinedione chymase inhibitors” (Boehringer Ingelheim International GmbH, priority 2007, dated 2013).

These molecules were tested against T1, Chymase (Homo sapiens, UniProt P23946) (assay: In vitro Assay for Inhibition of Chymase). Details: 500 pM chymase, 100 nM rhodamine 110 peptide substrate, 1 hour at 28° C., fluorescence.
T1 sequence (P23946 22-247): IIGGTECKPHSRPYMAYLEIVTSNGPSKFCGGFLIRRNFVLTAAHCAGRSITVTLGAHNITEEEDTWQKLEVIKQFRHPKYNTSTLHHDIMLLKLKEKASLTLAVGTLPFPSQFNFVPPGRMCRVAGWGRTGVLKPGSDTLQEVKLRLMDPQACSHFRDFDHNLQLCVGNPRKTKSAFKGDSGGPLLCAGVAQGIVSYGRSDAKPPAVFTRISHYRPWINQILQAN
Type: biochemical
Experimental: In vitro Assay for Inhibition of Chymase
Chymase assays were performed in a total volume of 15 μL in Corning black opaque 384-well microtiter plates with a non-binding surface (Coming, N.Y.). The assay buffer was comprised of 20 mM Tris HCl pH 8.0, 50 mM NaCl, 0.01% CHAPS. The test compounds were serially diluted 3-fold with neat DMSO in a 96-well polypropylene plate from a 10 mM DMSO stock to give the 10 point dose response curve. 3 μL of the resulting DMSO solution were transferred to a 384-well polypropylene plate in duplicate, and 37 μL of assay buffer was added. Chymase was added to the assay plate in 3 uL of assay buffer followed by 2 uL of the appropriate compound dilution using a PlateMate Plus (Matrix Technologies Corp., Hudson, N.H.). The reaction was initiated by the addition of 10 uL rhodamine 110, bis-(succinoyl-L-alanyl-L-alanyl-L-prolyl-L-phenylalanylamide) (American Peptides, Sunnyvale, Calif.) in assay buffer containing 150 μM tris(2-carboxyethyl)phosphine (TCEP, Pierce Chemical, Rockford, Ill.) using a Multidrop (Thermo Electron Corp., Waltham, Mass.). Final assay concentrations were 500 pM chymase, 100 nM substrate, 100 μM TCEP, and 1% DMSO. The plates were incubated at 28° C. and 80% humidity for 1 hour, at which time the fluorescence was read on a Viewlux 1430 Microplate Imager (Perkin Elmer Life Sciences, Boston, Mass.) with 485 nm excitation, 530 nm emission, and a fluorescein dichroic mirror. The percentage of control values were calculated relative to assay blanks containing complete reaction minus chymase and a 100% control containing assay buffer with 1% DMSO in place of compound. IC50 values were obtained by fitting the data using XLFit4 (IDBS Software).

| Compound | IC50 [nM] |
| --- | --- |
| Cc1cc(C)c2c(Cn3c(=O)n([C@H](C(=O)O)c4ccc(Cl)cc4)c(=O)c4ccccc43)nsc2c1 [(S)-(4-Chloro-phenyl)-[1-(4,6-dimethyl-1,2-benzisothiazol-3-ylmethyl)-2,4-dioxo-1,4-dihydro-2H-quinazolin-3-yl]-acetic acid] | 0.92 |
| Cc1cccc2c1c(Cn1c(=O)n([C@H](C(=O)O)c3ccccc3)c(=O)c3ccccc31)cn2C [(S)-[1-(1,4-Dimethyl-1H-indol-3-ylmethyl)-2,4-dioxo-1,4-dihydro-2H-quinazolin-3-yl]-phenyl-acetic acid] | 2 |
| Cc1cc(C)c2c(Cn3c(=O)n([C@H](C(=O)O)c4ccccc4)c(=O)c4ccccc43)nsc2c1 [(S)-[1-(4,6-Dimethyl-1,2-benzisothiazol-3-ylmethyl)-2,4-dioxo-1,4-dihydro-2H-quinazolin-3-yl]-phenyl-acetic acid] | 1 |
| Cc1cccc2c1c(Cn1c(=O)n(C3(CC(=O)O)CCCCC3)c(=O)c3ccccc31)cn2C [{1-[1-(1,4-Dimethyl-1H-indol-3-ylmethyl)-2,4-dioxo-1,4-dihydro-2H-quinazolin-3-yl]-cyclohexyl}-acetic acid] | 3 |
| Cc1cccc2c1c(Cn1c(=O)n(CC3(CC(=O)O)CCCCC3)c(=O)c3ccccc31)cn2C [{1-[1-(1,4-Dimethyl-1H-indol-3-ylmethyl)-2,4-dioxo-1,4-dihydro-2H-quinazolin-3-ylmethyl]-cyclohexyl}-acetic acid] | 3 |
| Cc1cc(C)c2c(Cn3c(=O)n(C4(CC(=O)O)CCCCC4)c(=O)c4ccccc43)nsc2c1 [{1-[1-(4,6-Dimethyl-1,2-benzisothiazol-3-ylmethyl)-2,4-dioxo-1,4-dihydro-2H-quinazolin-3-yl]-cyclohexyl}-acetic acid] | 4 |
